# BindingDB's records for doi:10.3109/14756366.2012.715287 (Atatürk University, 2013)
# Molecular target: Serum paraoxonase/arylesterase 1 (Homo sapiens, UniProt P27169)
# Assay: Enzyme Activity Assay
# Procedure: The enzyme assay was based on the estimation of p-nitrophenol at 412 nm. Paraoxonase activity was determined spectrophotometrically using the same procedure in our previous studies [Ekinci et al., Eur. J. Pharmacol., 617:84-89]. One enzyme unit was defined as the amount of enzyme that catalyzes the hydrolysis of 1 μmol of substrate at 25°C.
# Sequence of Serum paraoxonase/arylesterase 1 (P27169 whole entry): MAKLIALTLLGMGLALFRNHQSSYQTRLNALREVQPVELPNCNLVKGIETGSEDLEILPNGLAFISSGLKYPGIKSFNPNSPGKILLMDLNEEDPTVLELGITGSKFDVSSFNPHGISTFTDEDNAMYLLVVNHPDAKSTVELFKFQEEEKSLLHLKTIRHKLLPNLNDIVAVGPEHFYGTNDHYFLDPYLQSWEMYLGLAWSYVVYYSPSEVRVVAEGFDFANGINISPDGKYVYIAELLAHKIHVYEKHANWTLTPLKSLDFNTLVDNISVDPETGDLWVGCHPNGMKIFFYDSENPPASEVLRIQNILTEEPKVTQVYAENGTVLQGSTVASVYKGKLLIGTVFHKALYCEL
row,Compound,IC50 [µM]
1,"COc1ccc(C(=O)c2cccc(OC)c2OC)cc1OC [(2,3-dimethoxyphenyl)(3,4-dimethoxyphenyl)methanone (6)]",1210
2,"COc1ccc(C(=O)c2c(Br)c(Br)cc(OC)c2OC)cc1OC [(2,3-dibromo-5,6-dimethoxyphenyl)(3,4-dimethoxyphenyl)methanone (7)]",174
3,"O=C(c1ccc(O)c(O)c1)c1c(O)c(O)cc(Br)c1Br [(2,3-Dibromo-5,6-dihydroxyphenyl)(3,4-dihydroxyphenyl)methanone (10)]",832
4,"O=C(c1cc(O)c(O)c(Br)c1)c1c(O)c(O)cc(Br)c1Br [(3-Bromo-4,5-dihydroxyphenyl)(2,3-dibromo-5,6-dihydroxyphenyl)methanone (12)]",701
5,"COc1cc(Br)c(C(=O)c2c(Br)c(Br)cc(OC)c2OC)cc1OC [(2-Bromo-4,5-dimethoxyphenyl)(2,3-dibromo-5,6-dimethoxyphenyl)methanone (8)]",123
6,"COc1cc(C(=O)c2c(Br)c(Br)cc(OC)c2OC)cc(Br)c1OC [(3-Bromo-4,5-dimethoxyphenyl)(2,3-dibromo-5,6-dimethoxyphenyl)methanone (9)]",125
7,"O=C(c1cc(O)c(O)cc1Br)c1c(O)c(O)cc(Br)c1Br [(2-Bromo-4,5-dihydroxyphenyl)(2,3-dibromo-5,6-dihydroxyphenyl)methanone (11)]",1110
